The values below are quoted from earlier work in patent US20020022024A1, “Hemoglobinase inhibitors and methods of use” (priority 2000, published 2002).

The subject of data set [1] is schistosomules. The conditions noted are these: added to culture media, in comparison to controls; Zerda et al. 1988.
Data set [2] deals with T1, S. mansoni cathepsin B, Sm31 (Schistosoma mansoni, UniProt P25792).
T1 sequence (P25792 89-340): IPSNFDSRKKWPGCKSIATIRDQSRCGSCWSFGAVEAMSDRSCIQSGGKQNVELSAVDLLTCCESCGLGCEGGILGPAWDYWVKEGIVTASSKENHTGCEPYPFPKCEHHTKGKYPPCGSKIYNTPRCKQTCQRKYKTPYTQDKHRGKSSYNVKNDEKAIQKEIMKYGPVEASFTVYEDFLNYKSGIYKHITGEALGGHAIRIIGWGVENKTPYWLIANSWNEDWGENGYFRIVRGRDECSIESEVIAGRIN
The conditions noted are these: short synthetic substrate; Klinkert et al. 1994.

On to `CC(C)C[C@H](NC(=O)[C@H]1O[C@@H]1C(=O)O)C(=O)NCCCCN` [EP459], for which the “death rate of schistosomules” value in data set [1] is reported as “increased the death rate of schistosomules”.
With `CSCCC(NC(=O)C(Cc1c[nH]c2ccccc12)NC(=O)OCc1ccccc1)C(=O)C=[N+]=[N-]` (stereo not drawn) [Z-Trp-Met-CHN2], the “inhibitor potency on Sm31 relative to a derivative of E64” value in data set [2] is listed as “more potent inhibitor of Sm31”.
